Source: patent publication US10167256B2, “Psychotrophic agents and uses thereof” (LB PHARMACEUTICALS INC., priority 2016, dated 2019)

Assays:
[1] = PAMPA
D1 receptor = D1 receptor (Homo sapiens (Human), UniProt P21728); conditions: cited from earlier work
D4 receptor = D4 receptor (Homo sapiens (Human), UniProt P21917); conditions: cited from earlier work
D5 receptor = D5 receptor (Homo sapiens (Human), UniProt P21918); conditions: cited from earlier work
5-HT2a receptor = 5-HT2a receptor (Homo sapiens (Human), UniProt P28223); conditions: cited from earlier work
[2] = system: serotonin receptor subtypes; conditions: cited from earlier work
[3] = system: alpha-adrenergic receptor subtypes; conditions: cited from earlier work
[4] = system: histamine receptor subtypes; conditions: cited from earlier work
muscarinic receptors = conditions: cited from earlier work
sigma sites = conditions: cited from earlier work
[5] = 2014 study, 30 psychiatric drugs; cited from earlier work
in vitro = conditions: PAMPA
dopamine D2 receptors [6] = target: T1, dopamine D2 receptors (Homo sapiens (Human), UniProt P14416); assay: Dopamine D2 receptor cell-based assay (calcium fluorescence, dopamine at EC80)
Experimental: Dopamine D2 receptor cells were seeded in a half a black, clear-bottomed 96 well plate. At a density of 15,000 cells/well to a volume of 25 μL and were left to incubate overnight. Calcium 5 dye in HEPES buffered HBSS (Hanks' balanced salt solution) was prepared and 10 μL was added to each well and the mixture was left to sit at 37° C. for 1 hour. After equilibration, 5 μL of the test compound and controls were added to the wells and incubated at room temperature for 10 minutes.

dopamine D2 receptors [7] = target: T1, dopamine D2 receptors; assay: Dopamine D2 receptor membrane preparation, 3H spiperone binding; conditions: membrane based assay, 0.1 nM 3H spiperone
Experimental: Radioactivity was measured using a Packard Topcount.

α2 (non-selective) = assay: Reference ligand displacement, α2 (non-selective); format: binding; conditions: α-2A (non-selective); reference ligand prazosin
Experimental: (§1) The ability of Compound 102 and 103 to bind α2 (non-selective), α2A, α2B, α2C, 5-HT2A (agonist), 5-HT2A (antagonist), D2L, D2S, and D3 was measured at concentrations ranging from 10×10^−5 to 10×10^−9 M and measuring displacement of reference ligands (prazosin for α2 (non-selective), yohimbine for α2A, α2B and α2C, DOI ([2,5-dimethoxy-4-iodophenyl]-2-aminopropane) for 5-HT2A (agonist), ketanserine for 5-HT2A (antagonist), butaclamol for D2L, 7-OH-DPAT for D2S, and (+) blutaclamol for D3). bound to the respective isolated receptor.

α-2A(h) = α-2A(h) (Homo sapiens (Human), UniProt P08913); assay: Reference ligand displacement, α2A; format: binding; conditions: yohimbine
Experimental: as §1

α-2B(h) = α-2B(h) (Homo sapiens (Human), UniProt P18089); assay: Reference ligand displacement, α2B; format: binding; conditions: yohimbine
Experimental: as §1

α-2C(h) = α-2C(h) (Homo sapiens (Human), UniProt P18825); assay: Reference ligand displacement, α2C; format: binding; conditions: yohimbine
Experimental: as §1

5-HT2a (agonist) = 5-HT2a (agonist) (Homo sapiens (Human), UniProt P28223); assay: Reference ligand displacement, 5-HT2A (agonist); format: binding; conditions: DOI
Experimental: as §1

5-HT2a (antagonist) = 5-HT2a (antagonist) (Homo sapiens (Human), UniProt P28223); assay: Reference ligand displacement, 5-HT2A (antagonist); format: binding; conditions: ketanserine
Experimental: as §1

5-HT7 = 5-HT7 (Homo sapiens (Human), UniProt P34969); assay: Reference ligand displacement, 5-HT7; format: binding
D2L = D2L (Homo sapiens (Human), UniProt P14416); assay: Reference ligand displacement, D2L; format: binding; conditions: butaclamol
Experimental: as §1

D2S = D2S (Homo sapiens (Human), UniProt P14416); assay: Reference ligand displacement, D2S; format: binding; conditions: 7-OH-DPAT
Experimental: as §1

D3 = D3 (Homo sapiens (Human), UniProt P35462); assay: Reference ligand displacement, D3; format: binding; conditions: (+) butaclamol
Experimental: as §1

PCP-treated rats = assay: Novel Object Recognition (NOR) assay, sub-chronic PCP; format: in vivo; conditions: PO; for difference between novel and familiar object exploration time: 3 hours post-dose, all doses save one; for known object exploration behavior in rats treated with PCP: compared with untreated rats, amisulpride and risperidone
Experimental: Efficacy of Compounds 102 and 103 was evaluated in rats in a Novel Object Recognition (NOR) assay, a well-established model recapitulating cognitive and negative aspects of the PANSS scale of schizophrenia. In this assay, animals were treated for several weeks with a low dose of phencyclidine (PCP) to impair the ability of the rat to discern between novel and familiar objects. Typically rats, like humans, would spend more time exploring a novel object than a familiar one.
Rats (n=10/group) were dosed with 2 mg/kg intraperitoneal twice a day (i.p., b.i.d.) for seven days followed by 7 days drug free. […] Novel object exploration time was measured for the test subjects from a sub-chronic PCP NOR study in rats (n=10/group). The differences in exploration time between novel (Tnovel¬) and familiar (Tfamliar) objects are depicted in FIG. 1A (*: p<0.05; and *: p<0.01).

[8] = system: rats dosed with amphetamine; assay: Amphetamine-induced Locomotor Activity (LMA) assay; format: in vivo; conditions: 30 mg/kg orally, 6 hours post dosing, total ambulatory distance over 1 hour
Experimental: Efficacy of Compounds 102 and 103 was studied in rats in an amphetamine-induced Locomotor Activity (LMA) assay, a measure of positive aspects of the PANSS scale. In the LMA assay rats were dosed with amphetamine (Amp, 1 mg/kg, s.c.), causing excessive movement, in a cage with sensors that monitored how far each rat moved.
Distance moved, over the course of an hour, was measured 6 hours post dosing for Compounds 102 and 103 and amisulpride-risperidone was dosed 1 hour prior to measurement. The endpoint of this study was total ambulatory distance (the distance traveled by each animal in the cage). Total ambulatory distance data from this amphetamine induced LMA study are summarized in FIG. 2 (*: p<0.01; *: p<0.05).

D3, sequence (P35462 whole entry): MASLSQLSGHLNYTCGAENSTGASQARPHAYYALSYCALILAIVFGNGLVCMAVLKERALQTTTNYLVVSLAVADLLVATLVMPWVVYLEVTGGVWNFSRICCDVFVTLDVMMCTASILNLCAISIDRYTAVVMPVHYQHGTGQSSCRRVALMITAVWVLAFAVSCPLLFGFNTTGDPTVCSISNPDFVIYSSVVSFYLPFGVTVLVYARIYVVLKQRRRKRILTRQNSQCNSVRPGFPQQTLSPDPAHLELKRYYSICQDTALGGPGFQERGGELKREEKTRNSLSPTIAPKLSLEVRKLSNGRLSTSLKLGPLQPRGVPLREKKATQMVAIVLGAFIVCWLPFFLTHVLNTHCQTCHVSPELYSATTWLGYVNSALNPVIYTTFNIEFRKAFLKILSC
D2S, sequence (P14416 other isoform, or with tags, fused parts or gaps): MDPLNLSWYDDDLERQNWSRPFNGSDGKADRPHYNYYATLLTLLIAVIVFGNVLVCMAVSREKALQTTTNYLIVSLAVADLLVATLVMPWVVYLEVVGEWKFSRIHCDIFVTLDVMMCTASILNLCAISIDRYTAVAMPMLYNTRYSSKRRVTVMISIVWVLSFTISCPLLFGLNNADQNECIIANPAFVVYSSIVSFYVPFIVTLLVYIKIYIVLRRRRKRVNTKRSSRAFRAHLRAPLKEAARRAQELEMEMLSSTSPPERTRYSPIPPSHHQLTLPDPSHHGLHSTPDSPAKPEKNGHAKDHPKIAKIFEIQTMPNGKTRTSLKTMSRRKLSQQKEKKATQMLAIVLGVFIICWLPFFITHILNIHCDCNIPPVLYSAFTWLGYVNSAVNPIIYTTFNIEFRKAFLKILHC
D2L, sequence (P14416 whole entry): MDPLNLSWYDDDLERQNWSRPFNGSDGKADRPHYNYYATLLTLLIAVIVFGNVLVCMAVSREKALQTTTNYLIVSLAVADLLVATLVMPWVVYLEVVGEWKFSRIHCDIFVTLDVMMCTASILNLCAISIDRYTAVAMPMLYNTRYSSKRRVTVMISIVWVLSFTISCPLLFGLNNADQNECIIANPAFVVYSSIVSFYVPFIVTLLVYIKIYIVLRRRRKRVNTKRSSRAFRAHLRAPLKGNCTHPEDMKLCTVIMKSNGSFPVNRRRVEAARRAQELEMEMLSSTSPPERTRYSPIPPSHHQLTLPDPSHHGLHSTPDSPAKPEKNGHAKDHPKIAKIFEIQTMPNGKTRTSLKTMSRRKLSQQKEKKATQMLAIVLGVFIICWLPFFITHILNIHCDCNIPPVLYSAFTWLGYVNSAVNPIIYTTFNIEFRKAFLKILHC
5-HT2a (antagonist), sequence (P28223 whole entry, species assumed): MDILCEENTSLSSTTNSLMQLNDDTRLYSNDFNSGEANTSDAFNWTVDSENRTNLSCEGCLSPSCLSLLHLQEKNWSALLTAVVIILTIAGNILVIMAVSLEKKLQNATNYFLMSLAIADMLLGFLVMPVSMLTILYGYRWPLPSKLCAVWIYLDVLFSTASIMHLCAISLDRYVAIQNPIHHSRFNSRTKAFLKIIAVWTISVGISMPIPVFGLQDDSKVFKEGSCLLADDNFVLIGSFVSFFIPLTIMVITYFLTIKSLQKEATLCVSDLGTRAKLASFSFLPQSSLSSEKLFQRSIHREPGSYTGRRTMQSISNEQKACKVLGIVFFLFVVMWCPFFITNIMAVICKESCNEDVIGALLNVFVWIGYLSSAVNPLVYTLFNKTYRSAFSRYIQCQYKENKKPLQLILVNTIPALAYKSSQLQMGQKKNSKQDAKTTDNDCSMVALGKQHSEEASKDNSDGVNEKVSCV
5-HT2a (agonist), sequence (P28223 whole entry, species assumed): as above
5-HT7, sequence (P34969 whole entry, species assumed): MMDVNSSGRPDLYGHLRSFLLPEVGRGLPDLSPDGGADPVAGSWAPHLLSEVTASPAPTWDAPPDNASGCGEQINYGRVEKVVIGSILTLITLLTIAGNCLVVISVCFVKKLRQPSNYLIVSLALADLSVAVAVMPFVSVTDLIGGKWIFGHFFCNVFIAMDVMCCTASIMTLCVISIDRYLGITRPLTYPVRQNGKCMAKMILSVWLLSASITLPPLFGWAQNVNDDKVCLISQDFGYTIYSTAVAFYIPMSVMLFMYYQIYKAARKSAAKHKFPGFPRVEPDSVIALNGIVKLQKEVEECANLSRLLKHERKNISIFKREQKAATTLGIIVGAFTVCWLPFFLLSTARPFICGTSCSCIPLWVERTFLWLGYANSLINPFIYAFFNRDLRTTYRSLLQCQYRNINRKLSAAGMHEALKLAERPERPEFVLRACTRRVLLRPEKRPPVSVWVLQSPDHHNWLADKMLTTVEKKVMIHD
T1 sequence (P14416 whole entry): as the sequence (P14416 whole entry) above
α-2C(h), sequence (P18825 whole entry): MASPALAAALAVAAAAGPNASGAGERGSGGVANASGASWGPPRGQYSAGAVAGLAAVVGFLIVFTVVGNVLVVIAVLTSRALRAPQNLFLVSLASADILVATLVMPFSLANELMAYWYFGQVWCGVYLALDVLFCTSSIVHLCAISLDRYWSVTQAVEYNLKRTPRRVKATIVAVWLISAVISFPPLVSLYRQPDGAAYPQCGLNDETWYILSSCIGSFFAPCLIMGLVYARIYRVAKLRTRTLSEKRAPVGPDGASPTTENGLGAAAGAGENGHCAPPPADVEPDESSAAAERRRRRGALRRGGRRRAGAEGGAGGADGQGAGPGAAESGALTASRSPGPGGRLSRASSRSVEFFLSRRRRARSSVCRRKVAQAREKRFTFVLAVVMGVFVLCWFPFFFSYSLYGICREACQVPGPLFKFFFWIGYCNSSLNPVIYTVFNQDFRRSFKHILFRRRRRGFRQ
α-2B(h), sequence (P18089 whole entry): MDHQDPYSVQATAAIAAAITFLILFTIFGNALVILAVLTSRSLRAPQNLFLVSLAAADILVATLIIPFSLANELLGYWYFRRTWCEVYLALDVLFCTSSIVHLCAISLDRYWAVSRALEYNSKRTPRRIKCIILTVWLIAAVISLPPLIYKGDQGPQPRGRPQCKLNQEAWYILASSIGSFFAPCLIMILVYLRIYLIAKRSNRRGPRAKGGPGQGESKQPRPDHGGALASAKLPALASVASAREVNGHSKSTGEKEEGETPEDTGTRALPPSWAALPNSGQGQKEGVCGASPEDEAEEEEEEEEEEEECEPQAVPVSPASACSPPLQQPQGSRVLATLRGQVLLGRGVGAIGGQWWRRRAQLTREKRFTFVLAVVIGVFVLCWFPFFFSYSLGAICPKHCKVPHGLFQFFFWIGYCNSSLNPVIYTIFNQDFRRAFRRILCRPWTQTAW
α-2A(h), sequence (P08913 whole entry): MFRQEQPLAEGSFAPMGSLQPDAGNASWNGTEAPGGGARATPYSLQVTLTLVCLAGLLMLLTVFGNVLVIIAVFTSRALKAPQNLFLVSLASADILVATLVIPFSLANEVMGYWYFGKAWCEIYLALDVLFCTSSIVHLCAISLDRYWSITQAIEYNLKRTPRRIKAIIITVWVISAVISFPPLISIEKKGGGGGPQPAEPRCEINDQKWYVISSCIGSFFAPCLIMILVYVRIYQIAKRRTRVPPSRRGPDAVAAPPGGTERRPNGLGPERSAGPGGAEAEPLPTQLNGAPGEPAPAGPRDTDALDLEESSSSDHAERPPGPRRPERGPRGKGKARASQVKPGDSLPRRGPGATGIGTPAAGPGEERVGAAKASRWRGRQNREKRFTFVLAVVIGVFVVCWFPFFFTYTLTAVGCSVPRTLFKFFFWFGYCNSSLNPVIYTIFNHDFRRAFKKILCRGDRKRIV
D5 receptor, sequence (P21918 whole entry): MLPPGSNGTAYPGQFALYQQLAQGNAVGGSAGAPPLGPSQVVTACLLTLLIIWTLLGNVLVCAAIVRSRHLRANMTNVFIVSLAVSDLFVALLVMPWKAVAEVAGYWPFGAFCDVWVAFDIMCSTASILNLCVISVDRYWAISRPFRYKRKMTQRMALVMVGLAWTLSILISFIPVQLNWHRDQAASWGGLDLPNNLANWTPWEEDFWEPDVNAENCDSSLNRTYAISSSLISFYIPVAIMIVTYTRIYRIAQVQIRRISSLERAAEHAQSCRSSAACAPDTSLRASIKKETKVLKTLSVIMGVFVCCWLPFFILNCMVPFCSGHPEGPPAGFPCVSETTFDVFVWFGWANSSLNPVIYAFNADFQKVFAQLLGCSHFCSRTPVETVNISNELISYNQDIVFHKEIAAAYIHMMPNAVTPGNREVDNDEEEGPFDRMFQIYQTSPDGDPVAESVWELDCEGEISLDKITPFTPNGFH

| SMILES | Permeability (cm/s) pH 7.4 [1] | Papp (in vitro; pH 5) [×10⁻⁶ cm/s] | IC50 (α2 (non-selective)) [nM] | Ki (α2 (non-selective)) [nM] | IC50 (5-HT2a (agonist)) [nM] | Ki (5-HT2a (agonist)) [nM] | IC50 (5-HT2a (antagonist)) [nM] | Ki (5-HT2a (antagonist)) [nM] | IC50 (D2L) [nM] | Ki (D2L) [nM] | IC50 (D2S) [nM] | Ki (D2S) [nM] | IC50 (D3) [nM] | Ki (D3) [nM] | difference between novel and familiar object exploration time (PCP-treated rats) | known object exploration behavior in rats treated with PCP (PCP-treated rats) | normalized amphetamine hyperactivity compared to amisulpride [8] | Papp (in vitro; pH 7.4) [×10⁻⁶ cm/s] | also measured |
| --- | --- | --- | --- | --- | --- | --- | --- | --- | --- | --- | --- | --- | --- | --- | --- | --- | --- | --- | --- |
| CCN1CCCC1CNC(=O)c1cc(S(=O)(=O)CC)c(N)cc1OC (stereo not shown) [Amisulpride, 4-amino-N-(((1-ethyl-2-pyrrolidinyl)methyl)-5-(ethylsulfonyl))-2-methoxybenzamide] | 2.4 × 10^−11 cm/s | 0.00024 | – | – | – | – | – | – | – | – | – | – | – | – | – | – | – | – | affinity for D1 receptor subtype (D1 receptor): without any affinity; affinity for D4 receptor subtype (D4 receptor): without any affinity; affinity for D5 receptor subtype (D5 receptor): without any affinity; activity at the 5-HT2a receptor (5-HT2a receptor): not noted to have any activity; affinity for serotonin receptor subtypes [2]: low affinity; affinity for alpha-adrenergic receptor subtypes [3]: low affinity; affinity for histamine receptor subtypes [4]: low affinity; affinity for muscarinic receptors (muscarinic receptors): low affinity; affinity for sigma sites (sigma sites): low affinity; passive diffusion across a PAMPA membrane (Pe) [5]: lowest of 30 psychiatric drugs tested |
| CCN1CCCC1CNC(=O)c1cc(S(=O)(=O)CC)c(NC)cc1OC (stereo not shown) [Compound 102] | – | 0.021 | 95 | 41 | 270 | 200 | 890 | 490 | 2.7 | 0.66 | 8.4 | 3.4 | 11 | 2.5 | increased the difference between novel and familiar object exploration time | able to restore known object exploration behavior in rats treated with PCP to levels similar to untreated rats | statistically superior to that of amisulpride | 0.0052 | IC50 (dopamine D2 receptors [6]): 8.9 nM; IC50 (dopamine D2 receptors [7]): 8.2 nM; IC50 (α-2A(h)): 480 nM; Ki (α-2A(h)): 220 nM; IC50 (α-2B(h)): 170 nM; Ki (α-2B(h)): 110 nM; IC50 (α-2C(h)): 790 nM; Ki (α-2C(h)): 240 nM; IC50 (5-HT7): 74 nM; Ki (5-HT7): 27 nM |
| CCN1CCC[C@H]1CNC(=O)c1cc(S(=O)(=O)CC)c(NC)cc1OC [Compound 103, ((S)-4-methylamino-N-((1-ethyl-2-pyrrolidinyl)methyl)-5-(ethylsulfonyl))-2-methoxybenzamide] | – | – | 150 | 6.7 | 550 | 410 | 980 | 530 | 1.7 | 0.41 | 1.4 | 0.56 | 5.5 | 1.2 | increased the difference between novel and familiar object exploration time | able to restore known object exploration behavior in rats treated with PCP to levels similar to untreated rats | statistically indistinguishable from that of amisulpride | – | – |
| CC(C)NCC(O)COc1cccc2ccccc12 (stereo not shown) [Promanolol, propanolol] | – | 0.031 | – | – | – | – | – | – | – | – | – | – | – | – | – | – | – | 7.8 | – |
| CNC(=C[N+](=O)[O-])NCCSCc1ccc(CN(C)C)o1 [Ranitidine, ranitidine] | 1.5 × 10^−10 cm/s | – | – | – | – | – | – | – | – | – | – | – | – | – | – | – | – | – | Permeability (cm/s) pH 5 ([1]; pH 5): 1.1 × 10^−10 cm/s |
